# Reference: patent publication US9241920B2, “Inhibition of c-Myc ubiquitination to prevent cancer initiation and progression” (NEW YORK UNIVERSITY, priority 2011, dated 2016)
# Tests used:
# [1] = test system: human CD34+ cells (CML patients) depleted of Fbw7; assay: Apoptosis (annexin V staining) of Fbw7-depleted human CML CD34+ cells; type: cell-based; settings: human CD34+ cells after depletion of Fbw7; decrease of c-Myc activity
# Experimental: Viable bone marrow mononuclear cells from two treatment-naïve patients in the chronic phase of CML were obtained from AllCells. To examine the role of FBW7 in the maintenance of LICs for human CML, bone marrow mononuclear cells were transfected with 300 nM FBW7 siRNAs (Stealth Select RNAi siRNA, Invitrogen) by electroporation with the use of an Amaxa Nucleofector II device (Lonza) according to the manufacture's instructions. The transfected cells were then stained with antibodies to human CD34 (8G12), CD3 (SK7), CD16 (3G8), CD19 (SJ25C1), CD20 (L27), CD14 (MφP9), and CD56 (NCAM16.2) (BD Biosciences). CD3, CD16, CD19, CD20, CD14, and CD56 were used as lineage markers. CD34^+Lin^− cells were purified by FACS and cocultured with OP-9 cells for 7 days. For assays of apoptosis, cells were collected after 7 days of culture, stained for cell surface markers, further incubated for 15 min with annexin V (BD Biosciences) and then analyzed by flow cytometry.
# [2] = test system: human CD34+Lin- cells (CML patients) depleted of Fbw7; assay: Colony forming unit assay of Fbw7-depleted human CML CD34+ cells; type: cell-based; settings: human CD34+ cells after depletion of Fbw7; decrease of c-Myc activity
# Experimental: For the in vitro CFU experiments, mice received 5 intra-peritoneal (IP) injections of poly(I:C) at a dose of 20 ug/g, and LSK cells were purified 10 days post poly(I:C). LSK cells were purified and infected with Bcr-Abl-NGFR or Bcr-Abl-GFP retrovirus as described above. Bcr-Abl^+ lineage negative cells were sorted 72 hours after the first infection and 1000 cells were seeded into cytokine-supplemented methylcellulose medium (MethoCult 3434, Stem Cell Technologies). Colonies were counted 7 days after they were seeded and 4000 cells were re-plated and colonies were counted after another 7 days (14 days total). For human CFU assay, cells were collected after 7 days of culture, and 1×10^3 CD34^+Lin^− cells were transferred to Methocult medium (MethoCult GF H4435, StemCell Technologies). The number of colonies was counted 1 week after plating.
# Viable bone marrow mononuclear cells from two treatment-naïve patients in the chronic phase of CML were obtained from AllCells. […] For assays of apoptosis, cells were collected after 7 days of culture, stained for cell surface markers, further incubated for 15 min with annexin V (BD Biosciences) and then analyzed by flow cytometry.
compound,measurement,setting,value
CCc1ccc(/C=C2/SC(=S)NC2=O)cc1 [10058-F4],apoptosis of Fbw7-depleted cells,[1],rescued cells from apoptosis
same,colony forming ability of Fbw7-depleted cells,[2],rescued
